Laboratory results taken from patent US20230295115A1, “SUBSTITUTED ISOQUINOLINYLMETHYL AMIDES, ANALOGUES THEREOF, AND METHODS USING SAME” (priority 2020, published 2023).
pEC50: −log10 of the molar value. Like-named read-outs stand apart in the source and are kept apart here.

System: HBV rcDNA
Experiment: HepDE19 assay with bDNA quantitation of HBV rcDNA
Assay type: cell-based, hepatitis B virus (HBV)
Description: HepDE19 assay with bDNA quantitation of HBV rcDNA:
HepDE19 (50,000 cells/well) were plated in 96-well collagen-coated tissue-culture treated microtiter plates in DMEM/F12 medium supplemented with 10% fetal bovine serum, 1% penicillin-streptomycin and 1 μg/mL tetracycline and incubated in a humidified incubator at 37° C. and 5% CO2 overnight. Next day, the cells were switched to fresh medium without tetracycline and incubated for 4 hours at 37° C. and 5% CO2. […] The final DMSO concentration in the assay was 0.5%. The plates were incubated for 7 days in a humidified incubator at 37° C. and 5% CO2. Following a 7 day-incubation, the level of rcDNA present in the inhibitor-treated wells was measured using a Quantigene 2.0 bDNA assay kit (Affymetrix, Santa Clara, CA) with HBV specific custom probe set and manufacturers instructions. Concurrently, the effect of compounds on cell viability was assessed using replicate plates, plated at a density of 5,000 cells/well and incubated for 4 days, to determine the ATP content as a measure of cell viability using the cell-titer glo reagent (CTG; Promega Corporation, Madison, WI) as per manufacturer's instructions.

[1] = HepDE19 cells, 7 day incubation, rcDNA measured by Quantigene 2.0 bDNA assay, top concentration 25 μM; read-out: DE-19bDNA EC50
[2] = read-out: DE-19bDNA EC50; HepDE19 cells, 7 day incubation, rcDNA measured by Quantigene 2.0 bDNA assay, top concentration 25 μM

`C[C@H](c1c[nH]c(=O)c2ccccc12)N(C)C(=O)c1ccc(C(F)(F)F)c(F)c1` [Compound 145, (R)-3-Fluoro-N-methyl-N-(1-(1-oxo-1,2-dihydroisoquinolin-4-yl)ethyl)-4-(trifluoromethyl)benzamide] was tested, and the pEC50 (Hepatitis B virus, HepDE19, 168 h, HepDE19 cells, 7 day incubation, rcDNA measured by Quantigene 2.0 bDNA assay, top concentration 25 μM; read-out: DE-19bDNA EC50) was 6.96.
`CC(c1c[nH]c(=O)c2cc(F)c(F)cc12)N(C)C(=O)c1cc2cc(F)c(F)cc2[nH]1` (single isomer, unassigned) [Compound 15, N-(1-(6,7-Difluoro-1-oxo-1,2-dihydroisoquinolin-4-yl)ethyl)-5,6-difluoro-N-methyl-1H-indole-2-carboxamide] gave a pEC50 [1] of 5.80.
`CC(c1c[nH]c(=O)c2cc(F)c(F)cc12)N(C)C(=O)c1cc2ccccc2[nH]1` (single isomer, unassigned) [Compound 2, N-(1-(6,7-Difluoro-1-oxo-1,2-dihydroisoquinolin-4-yl)ethyl)-N-methyl-1H-indole-2-carboxamide] was tested, and the pEC50 [1] was 7.70.
Work on `CC(c1c[nH]c(=O)c2cc(F)c(F)cc12)N(C)C(=O)c1cc(F)c(F)c(F)c1` (single isomer, unassigned) [Compound 124, N-(1-(6,7-Difluoro-1-oxo-1,2-dihydroisoquinolin-4-yl)ethyl)-3,4,5-trifluoro-N-methylbenzamide] yielded a pEC50 [1] of 6.72.
`CC(c1c[nH]c(=O)c2cc(F)c(F)cc12)N(C)C(=O)[C@@H]1Cc2ccccc2N1` (single isomer, unassigned) [Compound 31] was tested, and the pEC50 [1] was 4.70.
`CC(c1c[nH]c(=O)c2c(F)c(F)ccc12)N(C)C(=O)c1cc2ccccn2c1` (single isomer, unassigned) [Compound 72, N-(1-(7,8-Difluoro-1-oxo-1,2-dihydroisoquinolin-4-yl)ethyl)-N-methylindolizine-2-carboxamide] gave a pEC50 [2] of 6.85.
`CC(c1c[nH]c(=O)c2cc(F)c(F)cc12)N(C)C(=O)c1cc2c(F)cc(F)cc2[nH]1` (single isomer, unassigned) [Compound 18, N-(1-(6,7-Difluoro-1-oxo-1,2-dihydroisoquinolin-4-yl)ethyl)-4,6-difluoro-N-methyl-1H-indole-2-carboxamide] gave a pEC50 [1] of 7.70.
Work on `CC(c1c[nH]c(=O)c2cc(F)c(F)cc12)N(C)C(=O)c1cccc(C(F)F)c1` (single isomer, unassigned) [Compound 125, N-(1-(6,7-Difluoro-1-oxo-1,2-dihydroisoquinolin-4-yl)ethyl)-3-(difluoromethyl)-N-methylbenzamide] yielded a pEC50 [1] of 4.61.
In the case of `CC(c1c[nH]c(=O)c2cc(F)c(F)cc12)N(C)C(=O)c1cc2c(F)cccn2c1` (single isomer, unassigned) [Compound 80, N-(1-(6,7-Difluoro-1-oxo-1,2-dihydroisoquinolin-4-yl)ethyl)-8-fluoro-N-methylindolizine-2-carboxamide], the pEC50 [1] was 7.70.
`CC(c1c[nH]c(=O)c2cc(F)c(F)cc12)N(C)C(=O)c1ccccc1` (single isomer, unassigned) [Compound 127, N-(1-(6,7-Difluoro-1-oxo-1,2-dihydroisoquinolin-4-yl)ethyl)-N-methylbenzamide] gave a pEC50 [2] of 5.45.
`CC(c1c[nH]c(=O)c2c(F)c(F)ccc12)N(C)C(=O)c1cc2c([nH]1)CCC(F)(F)C2` (single isomer, unassigned) [Compound 91, N-(1-(7,8-Difluoro-1-oxo-1,2-dihydroisoquinolin-4-yl)ethyl)-5,5-difluoro-N-methyl-4,5,6,7-tetrahydro-1H-indole-2-carboxamide] was tested, and the pEC50 [1] was 5.14.
Work on `CC(c1c[nH]c(=O)c2c(F)c(F)ccc12)N(C)C(=O)C1Cc2c(F)cc(F)cc2N1` (stereo not shown) [Compound 65, N-(1-(7,8-Difluoro-1-oxo-1,2-dihydroisoquinolin-4-yl)ethyl)-4,6-difluoro-N-methylindoline-2-carboxamide] yielded a pEC50 [1] of 4.96.
`CC(c1c[nH]c(=O)c2cc(F)c(F)cc12)N(C)C(=O)C1Nc2ccccc2C1(C)C` (stereo not shown) [Compound 114, N-(1-(6,7-Difluoro-1-oxo-1,2-dihydroisoquinolin-4-yl)ethyl)-N,3,3-trimethylindoline-2-carboxamide] gave a pEC50 [1] of 4.80.
